This is an account of results in patent publication US20070167399A1, “Therapeutic drug for traumatic neural disease (disorder) and/or motor function disorder” (Glycoscience Laboratories, Inc., priority 2006, published 2007).

For assay [1], the system named is rat spinal cord injury model. The assay is described as follows: Hind limb motor function (BBB scale) in rat spinal cord injury model, crush method with forceps. Type of assay: in vivo. To be noted: 60 μg/animal into the dura, seventh day after spinal cord injury, compared with physiological saline-administered group. The protocol: (§1) A spinal cord injury model (crush model with forceps) was prepared as described below. Twelve-week-old male Wistar rats were used as experimental animals. The animals were shaved from neck to hip with an electric clipper under pentobarbital anesthesia (50 mg/kg body weight) and the skin was cleansed with 70% ethanol and Isodine (product of Meiji Seika Kaisha, Ltd.). After dorsal skin incision, the thoracic spine from T5 to T10 was exposed, the sixth thoracic spine (T6 thoracic spine) was subjected to hemi-laminectomy, and a small incision was made on the dura. Following local anesthesia with Xylocaine (Astra Zeneca), a forceps (with the tip trimmed to 0.3 mm) was inserted at the position of T6 until its tip reached the vertebral body, and the spinal cord was crushed by sandwiching it from both sides for 10 sec. […]
After injury of the spinal cord, the hind limb motor function was assessed daily for 7 days by two independent blind examiners according to the method of Basso et al. (refer to Basso D M et al (1995), (1996)) using Basso-Beeattie-Bresnahan (BBB) Scale, and their average score was taken as a final assessment score. […]
The BBB score was evaluated using Tukey's nonparametric multiple comparison test.

The subject of assay [2] is rat spinal cord injury model. Description: Spinal cord evoked potential (SCEP) in rat spinal cord injury model, crush method with forceps. Type of assay: in vivo. To be noted: 60 μg/animal into the dura, seventh day after spinal cord injury, compared with saline-administered group. How it is done:
as §1
On the seventh day after the injury of the spinal cord, endotracheal intubation was performed into the experimental animal under halothane anesthesia (4.0% at the beginning, 1.0% during maintenance). […] Catheter electrodes were inserted into the experimental animal from the space between the second/third cervical vertebrae and the space between the 13th thoracic vertebra/first lumbar vertebra, and spinal cord evoked potential (SCEP) was measured with an electromyograph (Counterpoint, Dantec) after applying a supramaximal stimulus (stimulus frequency; 1 Hz, duration; 0.05 msec). […]

In a further assay the test system is interleukin-12 (IL-12). The following applies: reported by Asari et al. (Xu H et al. (2005)); cited from earlier work.
Another assay deals with MRL-lpr/lpr mouse. To be noted: administration of L4; Xu H et al. (2005); cited from earlier work.

Regarding `CC(=O)N[C@H]1C(O)O[C@H](COS(=O)(=O)O)[C@@H](O[C@@H]2O[C@H](COS(=O)(=O)O)[C@H](O)[C@H](O)[C@H]2O)[C@@H]1O` (stereo partly drawn) [L4, Gal(6S)β1-4GlcNAc(6S)], the “hind limb motor function (BBB score)” value in assay [1] was “significant recovery in hind limb motor function (P<0.001)”. In addition, in assay [2], the “spinal cord evoked potential (SCEP) amplitude” value is “a tendency for a recovery in the SCEP amplitude”. Also, the “effect on interleukin-12 (IL-12) expression” value in the assay with interleukin-12 (IL-12) was “has an inhibitory effect on interleukin-12 (IL-12) expression”. Moreover, in the assay on MRL-lpr/lpr mouse, the “IL-12 concentration in the blood” value is reported as “reduces IL-12 concentration in the blood”; the “cell death of T lymphocytes” value is “induces cell death of T lymphocytes”; the “size of lymphatic organs (lymph node and spleen)” value was “causes shrinking of lymphatic organs”.
